Measured values as given in a melting point compilation (Tetko et al.; mined from patent text by program, amines drawn as free bases though some values may be those of a salt).

Compound	melting point [°C]
CCc1c(Cc2[nH]c(Cc3[nH]c(C=O)c(C)c3CC)c(CC)c2CC)[nH]c(C=O)c1C	202 to 203
CC(O)C#Cc1cc(C(C)Nc2nc(N)nc(C(C)(C)F)n2)ccc1F (configuration not stated)	119 to 122
COC(=O)c1cc2ccc(OCCN(C)C(=O)OC(C)(C)C)cc2oc1=O	128 to 129
O=c1nc(-c2ccccc2)c2cc3c(cc2[nH]1)OCO3	351 to 354
CCOC(=O)c1cc(=O)c2cccc(N3CCN(C)CC3)c2o1	124 to 125
CCCCC1OC(=O)c2cc(NC(=O)CCC(=O)O)ccc21 (configuration not stated)	163 to 165
COc1cccc(-c2c(=O)[nH]c3cc(Cl)c(Cl)cc3[n+]2[O-])c1	238 to 240
CCCCCC(O)CCn1[nH]c(=O)n(C)c1=O (configuration not stated)	85 to 88
Cc1nnsc1C(=O)Nc1ccc(-n2nc(C(F)(F)F)cc2C(F)(F)F)c(C(F)(F)F)c1	134 to 136
Cc1c(C)c2c(c(C)c1NC(=O)OC(C)(C)C)C(c1ccc(C(C)C)cc1)CO2 (configuration not stated)	121 to 122
CC(C)(C)c1cc(CCc2ccccc2NC(=O)NC2CCCCCCC2)cc(C(C)(C)C)c1O	174 to 176
ClCCOc1c2ccccc2c(OCCCl)c2ccccc12	143 to 145
[N-]=[N+]=N[C@]1(C(=O)O)[C@H]2[C@@H](C[C@H]1O)[C@@H]2C(=O)O	124 to 128
Cc1nc2c(s1)C(=O)C(C=O)CC2 (configuration not stated)	107 to 108
CC(C)N(Sc1ccc([N+](=O)[O-])cc1C(Cl)(Cl)Cl)C(C)C	104
CC(C)(C)c1nc(C=CC(COc2ccccc2)=NO)nc(C(C)(C)C)c1O	130 to 135
CC(C)=CCCC(C)=CC=C1SC(=S)N(CC(=O)O)C1=O	95 to 98
Cc1cc2c(cc1Br)cc1n2[C@H](C)CN(C(=O)OC(C)(C)C)C1	113 to 114
O=C1N(Cc2ccc(C(F)(F)F)o2)c2ccccc2C12COc1cc3c(cc12)OCCO3 (configuration not stated)	53 to 56
Cc1c(-c2cc(CN(C)C)ccc2F)sc2nc(N)[nH]c(=O)c12	230 to 250
CN(Cc1cccc2c1CN(C1CCC(=O)NC1=O)C2=O)C(=O)NC1CCCCC1 (configuration not stated)	219 to 221
COC(=O)[C@@H]1CCCN1C(=O)Nc1cc(Cl)cc(Cl)c1	110 to 112
O=C1OC(=O)c2cscc21	147 to 149
C=CCN(CC=C)C(=O)n1cnc(S(=O)(=O)CCCCC)n1	28 to 30
O=C(O)c1cc2ncnn2nc1NCCCN1CCC(OC(c2ccccc2)c2ccccc2)CC1	207 to 209
CCCCCCC(=O)CCCCCCCC(COC(C)=O)(COC(C)=O)NC(C)=O	88 to 89
C=CCOc1ccc(C)c2c1C(=O)C1CCCCC21 (configuration not stated)	106 to 107

Compound	melting point [°C]
CCCCCCCCCCN1C(=O)OC2(CCNCC2)C1(C)O (configuration not stated)	139 to 140
CN(C)S(=O)(=O)c1ccc2c(c1)S(=O)(=O)NC2=O	198 to 200
COC(=O)c1nccn1C(c1ccccc1)(c1ccccc1)c1ccccc1	186 to 188
CC(C)(O)C1Cc2cc3ccc(=O)oc3cc2O1 (configuration not stated)	186 to 187
COc1ccc2nccc(CCCC3CCCNC3)c2c1 (configuration not stated)	110
Cc1nc2cc3c(nc2o1)C(=O)OC3=O	194 to 196
CC(=O)N1CCc2cc(Br)cc(N)c21	154 to 155
CCCCCCCCCCCCCCOc1ccc(CNc2ccc(CO)cc2)cc1	85 to 87
COc1cc(Nc2c(C#N)cnc3cc4cc(OC)c(OC)cc4cc23)c(C)cc1Cl	171 to 173
N#CCCN1CC(=O)N(CCC#N)CC1=O	166
O=C(CC1CCCCC1)Nc1c(Cl)ccc2nc(NC[C@@H](O)CO)ccc12	155 to 159
CC(C)Nc1nc(N2CCOCC2)nc2cscc12	202
Nc1nc(N)nc(C2CCN(C(=O)c3ccccc3)CC2)n1	246 to 248
CCCCC1(CCCC)CS(=O)(=O)c2ccc(N(C)C)cc2C(c2ccc(OCc3cccnc3CCC(=O)O)cc2)C1O (configuration not stated)	105 to 107
CCCCCCCCCCCCCCCCNc1ccc(C(=O)OCCCCO)cc1	61 to 63
CC(C)[C@H]1[C@@H](O)CC(=O)N1c1ccc(C#N)c(Cl)c1	100 to 102
CCOc1nc(NC(CC)CC)c([N+](=O)[O-])c(OCC)n1	38 to 40
O=[N+]([O-])c1ccc(NCCF)nc1	126 to 127
Cc1nnc2n1-c1ccc(Cl)cc1C(c1ccccc1F)=CC2	223 to 225
O=C(Cc1ccncc1)NC(Cc1csc2ccccc12)C(=O)CCc1cc(C(F)(F)F)cc(C(F)(F)F)c1 (configuration not stated)	184 to 187
Fc1ccc2[nH]cc(CC3C=CCN(Cc4ccccc4)C3)c2c1 (configuration not stated)	133 to 136
CC1=C(C)C(=O)C(CC[C@](C)(O)CO)=C(C)C1=O	109 to 112
CCCCCCCCCCCCCCCCOc1ccc(OCC(=O)NCCc2ccccn2)cc1	74 to 75
COC(=O)C1CCSSC(C)(C)C(=O)N1 (configuration not stated)	110 to 112
CNC(=O)CN1CCc2cc(Nc3ncc(Cl)c(N[C@H]4[C@@H](C(N)=O)[C@@H]5C=C[C@H]4C5)n3)c(OC)cc2CC1	135 to 145
CC(C)Oc1cc(-n2c(=O)c3c(n(C)c2=O)CCCC3)c(F)cc1Cl	143 to 145

Continued, values first:

melting point [°C]	Compound
167 to 170	Oc1noc2ccc(Oc3ccc(C(F)(F)F)cc3Cl)cc12
84.5 to 85.5	COC(=O)c1cccc(-c2cccc(CC(=O)O)c2)c1
68 to 72	CCSC1(c2cc(F)cc(OCc3ccc4c(ccc(=O)n4C)c3)c2)CCOCC1
150 to 155	O=C(Nc1ccc2c(c1)OC(F)(F)O2)N1CC(c2ccc(Cl)cc2)=C(c2ccc(Cl)cc2)N1
171	CCOC(=O)C1=C(N)NC(C)=CC1c1ccccc1Cl (configuration not stated)
143 to 145	COC(=O)C1=C(C)CN(c2ccccc2)C1=O
179 to 181	CN(NC(=O)c1ccc(C#N)cc1)C(=O)OC(C)(C)C
66 to 67	COC(=O)c1cc(CO)ccc1O
128	CC(=O)ON=C(N)c1cccc(OC(C)=O)c1
183	CC(=O)Nc1cc(C)c(O)cc1C
> 300	COc1cc(OC)c2c(=O)[nH]c(-c3cccc(-c4ccc(S(C)=O)cc4)c3)nc2c1 (configuration not stated)
117 to 118	COc1ccc(C(=O)c2ccc3cc(OC)ccc3c2)c(ON=C(C)C)c1
209 to 211	CN(C)C1CCN(Cc2ccc(COc3cccc4c3CN(C3CCC(=O)NC3=O)C4=O)cc2)CC1 (configuration not stated)
81 to 83	CCCCNc1nc(C=O)c(C#N)cc1C(=O)OCC
36 to 37.5	COC(=O)C=C(C)NCc1ccccc1
185 to 187	CCc1cc(Oc2cncc3sc(C(N)=O)cc23)ccc1Cl
85	CCN1CCC(C(=O)NO)(S(=O)(=O)c2ccc(OC)cc2)CC1
138 to 139	CC(=O)NCCCCCNc1ccc(NCCN(C)C)c2c1C(=O)c1ccccc1C2=O
128 to 130	C=CCC1Cn2c(ncc(C(=O)O)c2=O)-c2cc(OC)ccc21 (configuration not stated)
166 to 167	COc1ccc(Cn2cnc3c(-c4ccco4)nc(C(C)=O)nc32)cc1
192 to 195	C[C@H](NC(=O)c1ccc(Cn2nnc(-c3ccc(OC(=O)C(C)(C)C)cc3)n2)cc1)C(=O)O
178	COc1ccc(C2=NN(C3CCN(C(=O)CN4C(=O)Cc5ccccc54)CC3)C(=O)C2(C)C)cc1OC
83 to 85	COCCOc1c(C(=O)CC(=O)C(=O)O)ccc(Cc2ccccc2)c1OC
164 to 166	COc1ccc(-c2ccc(C(=O)Nc3ccc4cc(CN5CCCC5)cnc4c3C)c(F)c2)cc1
87	CCCCC(CC)C(c1ccc(O)cc1)c1ccc(O)cc1 (configuration not stated)

melting point [°C]	Compound
169 to 171	CCC1c2cccn2-c2ccc(C(F)(F)F)cc2N1S(=O)(=O)c1ccc(O)c(Cl)c1 (configuration not stated)
> 300	COC(=O)c1ccc2nc(C)n(Cc3ccc(C=C4SC(=O)NC4=O)cc3Cl)c2n1
77 to 80	O=C(OCC(=O)c1ccccc1[N+](=O)[O-])c1ccccc1
88 to 90	C#CCOc1ccccc1-n1cnc2cc(Nc3nnc(C)c4ccccc34)ccc21
139 to 140	CC(=O)c1ccc(-c2ccc(CC(C)O)cc2)cc1 (single isomer, unassigned; (-))
50 to 52	CCc1ccc(C(Cl)=NOS(C)(=O)=O)cc1
138	CC(=NNC(=O)c1ccccc1)c1sc(C)nc1C
243 to 245	Cc1cc(-c2c(-c3ccc(S(N)(=O)=O)cc3)cnn(-c3ccc(F)c(F)c3)c2=O)ccc1F
209 to 210	CC1(c2ccc(N)cc2)C(=O)c2c(Cl)cc(Cl)cc2N(Cc2ccccc2)C1=O (configuration not stated)
237 to 240	NC(=O)c1cn(Cc2c(F)cccc2F)nn1
161 to 163	Cc1ccc(C(N)=O)cc1F
236 to 240	CC(=C1SC(=O)NC1=O)c1cccc(OCCOc2c(-c3ccc(F)c(F)c3)n(C)c3ccccc3c2=O)c1
210 to 212	CN1CC=C(C(=O)N2c3ccccc3NC(=O)c3cscc32)CC1
159 to 162	CC(C)c1ccccc1N/C(S)=C(\C#N)C(=O)Nc1ccc(-c2ncn(-c3ccc(OC(F)(F)F)cc3)n2)cc1
158 to 160	Cn1c(=O)oc(=O)c2ccc(F)cc21
121 to 123	COC(=O)N(CO)c1ccc(OCc2nc3ccccc3s2)cc1C
177 to 180	CCCCCCCc1[nH]c2cc(C(=O)OC)ccc2c1C=O
58	COc1ccccc1CN[C@H]1CCCN(CC(=O)O)[C@H]1c1ccccc1 (relative stereo)
58 to 60	Cc1ncccc1NC(=NC#N)NC(NC(=O)Cc1ccc(F)c(F)c1)C(C)(C)C (configuration not stated)
203 to 205	O=C(O)c1cnc2ccc(Cc3ccccc3)cc2c1
102 to 105	Cc1ccc(C(=O)c2ccc(CC#N)n2C)cc1
307	O=c1[nH]c2c3ccccc3ccc2n(C2CC2)c1=O
158 to 160	O=C1NC(=O)C(=Cc2ccc(OCCN3CCN(c4ccccn4)CC3)cc2)S1
136 to 139	C=CCNc1cc(F)ccc1C(=O)O
